Data on two compounds can be found in US20100092534A1, “Combination Local Delivery Using a Stent” (Medtronic Vascular, Inc., priority 2008, published 2010).

Data set [1] can be described thus: Solubility in ethanol (coating solvent). In kind it is physicochemical. The source says: In the following Example, ethanol is chosen as the solvent of choice. The coating to be applied to the stent is a bioactive agent combination, consisting of a mTOR inhibitor and a glucocorticoid. The mTOR inhibitor is zotarolimus. The glucocorticoid is fluocinolone. […] Persons having ordinary skill in the art of polymer chemistry can easily pair the appropriate solvent system to the polymer-bioactive agent(s) combination and achieve optimum results with no more than routine experimentation.

For the next data set, the system named is tissue factor (TF). Put plainly: Relative gene expression of TF in stented porcine vessels. The following applies: local delivery from a vascular stent; several days after stenting; FIG. 1B. In kind it is in vivo. The text has this:
FIG. 1: Relative gene expression of (A) MCP-1 and (B) TF in porcine vessels that were stented with zotarolimus coated stents compared with uncoated stents and stents coated with fluocinolone. The drug doses are indicated in ug/mm^2. As such, delivery of zotarolimus locally from a vascular stent increases the expression of TF in stented vessels. The increased expression can be seen several days after the stenting procedure was preformed (FIG. 1B). In one embodiment, a dose titration experiment can be conducted to determine the optimal dosage for combination of zotarolimus (e.g. anti-proliferative drug) and fluocinolone (e.g. anti-inflammatory drug). At an optimal dose zotarolimus can inhibit neointimal hyperplasia via inhibition of smooth muscle cells proliferation, while maintaining low levels of MCP-1 and TF due to the inhibitory effect of fluocinolone. The evaluation of MCP-1 and TF can be performed by conducting pre-clinical, porcine study using stents loaded with escalating doses of at least zotarolimus or in combination with escalating dosages of fluocinolone and evaluating the expression of MCP-1 and TF in the vessels stented with these stents. […] The stented vessels can be excised 7 days post stenting and the expression of TF and MCP-1 can be evaluated via real time-PCR using porcine primers and probes, allowing the quantative measurement at transcriptional level.

Data set [2] concerns monocyte chemoattractant protein-1 (MCP-1). Put plainly: Relative gene expression of MCP-1 (mRNA) in stented porcine vessels. It is filed as in vivo. Conditions: local delivery from a vascular stent; 7 days after stenting; compared to a bare metal stent; measured on mRNA; FIG. 1A. The source says: FIG. 1: Relative gene expression of (A) MCP-1 and (B) TF in porcine vessels that were stented with zotarolimus coated stents compared with uncoated stents and stents coated with fluocinolone. The drug doses are indicated in ug/mm^2. FIG. 2: Relative gene expression of MCP-1 in porcine vessels that were stented with stents coated with zotarolimus alone compared to stents coated with zotarolimus combined with fluocinolone or fluocinolone alone. The drug doses are indicated in ug/mm^2. […] Furthermore, following stent placement, MCP-1 levels in plasma increase after several days and are more likely to be elevated at follow-up 6 months later in patients who have restenosis. In one embodiment, a dose titration experiment can be conducted to determine the optimal dosage for combination of zotarolimus (e.g. anti-proliferative drug) and fluocinolone (e.g. anti-inflammatory drug). At an optimal dose zotarolimus can inhibit neointimal hyperplasia via inhibition of smooth muscle cells proliferation, while maintaining low levels of MCP-1 and TF due to the inhibitory effect of fluocinolone. […] The stented vessels can be excised 7 days post stenting and the expression of TF and MCP-1 can be evaluated via real time-PCR using porcine primers and probes, allowing the quantative measurement at transcriptional level.

On to `CC1(C)O[C@@H]2C[C@H]3[C@@H]4C[C@H](F)C5=CC(=O)C=C[C@]5(C)[C@@]4(F)[C@@H](O)C[C@]3(C)[C@]2(C(=O)CO)O1` [fluocinolone], for which the solubility in ethanol result in data set [1] is recorded as “freely soluble”.

With `CO[C@H]1C[C@@H]2CC[C@@H](C)[C@@](O)(O2)C(=O)C(=O)N2CCCC[C@H]2C(=O)O[C@H]([C@H](C)C[C@@H]2CC[C@H](n3cnnn3)[C@H](OC)C2)CC(=O)[C@H](C)/C=C(\C)[C@@H](O)[C@@H](OC)C(=O)[C@H](C)C[C@H](C)/C=C/C=C/C=C/1C` [zotarolimus], the “expression of TF in stented vessels” value in the data set on tissue factor (TF) was “increases”. In data set [2], the “expression of monocyte chemoattractant protein-1 (MCP-1) in stented vessels” value is listed as “increased”. In addition, the solubility in ethanol entry in data set [1] is recorded as “freely soluble”.
